Test results reported in ChEMBL document CHEMBL5724914, “Linking interpersonal differences in gut microbiota composition and drug biotransformation activity” (2024).

Assays:
[1] = human gut metagenome, 24 h, 2 µM
[2] = human gut metagenome, 24 h, 2 µM; remark: listed apart in the source
[3] = human gut metagenome, 24 h, 2 µM; remark: listed apart in the source
[4] = human gut metagenome, 24 h, 2 µM; remark: listed apart in the source
[5] = (§1) The drug is tested on WLS-010 corresponding to human gut metagenome with ENA study accession number: PRJEB37062 and ENA sample accession number: ERS12561743 for biotransformation under anaerobic condition. The drug concentrations were measured over 9 timepoints collected between 0 and 24 hours of incubation by liquid-chromatography-coupled mass spectrometry (LC–MS); conditions: 2 µM
[6] = as §1, with “Z-022” for “WLS-010”, “mouse” for “human”, “ERS12561821” for “ERS12561743”; conditions: 2 µM
[7] = as §1, with “Z-024” for “WLS-010”, “pig” for “human”, “ERS12561823” for “ERS12561743”; conditions: 2 µM
[8] = human gut metagenome, 24 h, 2 µM; remark: listed apart in the source
[9] = as §1, with “Z-004” for “WLS-010”, “to” for “to human gut”, “ERS12561804” for “ERS12561743”; conditions: 2 µM
[10] = human gut metagenome, 24 h, 2 µM; remark: listed apart in the source
[11] = human gut metagenome, 24 h, 2 µM; remark: listed apart in the source
[12] = human gut metagenome, 24 h, 2 µM; remark: listed apart in the source
[13] = as §1, with “Z-009” for “WLS-010”, “pig” for “human”, “ERS12561809” for “ERS12561743”; conditions: 2 µM
[14] = as §1, with “Z-026” for “WLS-010”, “to” for “to human gut”, “ERS12561825” for “ERS12561743”; conditions: 2 µM
[15] = as §1, with “Z-027” for “WLS-010”, “to” for “to human gut”, “ERS12561826” for “ERS12561743”; conditions: 2 µM
[16] = human gut metagenome, 24 h, 2 µM; remark: listed apart in the source
[17] = as §1, with “WLS-086” for “WLS-010”, “ERS12561752” for “ERS12561743”; conditions: 2 µM
[18] = as §1, with “Z-005” for “WLS-010”, “to” for “to human gut”, “ERS12561805” for “ERS12561743”; conditions: 2 µM
[19] = as §1, with “WLS-082” for “WLS-010”, “ERS12561751” for “ERS12561743”; conditions: 2 µM
[20] = as §1, with “WLS-069” for “WLS-010”, “ERS12561748” for “ERS12561743”; conditions: 2 µM
Further: call rule not given here.

Row | SMILES | Bacterial Biotransformation [1] | Bacterial Biotransformation [2] | Bacterial Biotransformation [3] | Bacterial Biotransformation [4] | Bacterial Biotransformation [5] | Bacterial Biotransformation [6] | Bacterial Biotransformation [7] | Bacterial Biotransformation [8] | Bacterial Biotransformation [9] | Bacterial Biotransformation [10] | Bacterial Biotransformation [11] | Bacterial Biotransformation [12] | Bacterial Biotransformation [13] | Bacterial Biotransformation [14] | Bacterial Biotransformation [15] | Bacterial Biotransformation [16] | Bacterial Biotransformation [17] | Bacterial Biotransformation [18] | Bacterial Biotransformation [19] | Bacterial Biotransformation [20]
1 | NC(CO)(CO)CO.O=C(c1ccccc1)c1ccc2n1CCC2C(=O)O (stereo not given) [KETOROLAC TROMETHAMINE] | Compound metabolized | Compound metabolized | Compound metabolized | Compound metabolized | Compound metabolized | Compound metabolized | Compound metabolized | Compound metabolized | Compound NOT metabolized | Compound metabolized | Compound metabolized | Compound metabolized | Compound NOT metabolized | Compound NOT metabolized | Compound metabolized | Compound metabolized | Compound metabolized | Compound metabolized | Compound metabolized | Compound metabolized
2 | CC[C@H](C)C(=O)O[C@H]1C[C@@H](C)C=C2C=C[C@H](C)[C@H](CC[C@@H]3C[C@@H](O)CC(=O)O3)[C@H]21 [LOVASTATIN] | Compound NOT metabolized | Compound NOT metabolized | Compound NOT metabolized | Compound metabolized | Compound NOT metabolized | Compound metabolized | Compound metabolized | Compound NOT metabolized | Compound NOT metabolized | Compound NOT metabolized | Compound NOT metabolized | Compound NOT metabolized | Compound NOT metabolized | Compound metabolized | Compound NOT metabolized | Compound NOT metabolized | Compound NOT metabolized | Compound NOT metabolized | Compound NOT metabolized | Compound NOT metabolized
3 | CN1C(=O)CC(C)(c2ccccc2)C1=O (stereo not given) [METHSUXIMIDE] | Compound NOT metabolized | Compound NOT metabolized | Compound NOT metabolized | Compound metabolized | Compound NOT metabolized | Compound metabolized | Compound metabolized | Compound NOT metabolized | Compound NOT metabolized | Compound NOT metabolized | Compound NOT metabolized | Compound NOT metabolized | Compound NOT metabolized | Compound NOT metabolized | Compound NOT metabolized | Compound metabolized | Compound metabolized | Compound NOT metabolized | Compound NOT metabolized | Compound NOT metabolized
4 | CNC(=C[N+](=O)[O-])NCCSCc1csc(CN(C)C)n1 [NIZATIDINE] | Compound metabolized | Compound NOT metabolized | Compound NOT metabolized | Compound metabolized | Compound NOT metabolized | Compound metabolized | Compound NOT metabolized | Compound NOT metabolized | Compound NOT metabolized | Compound metabolized | Compound NOT metabolized | Compound metabolized | Compound NOT metabolized | Compound NOT metabolized | Compound NOT metabolized | Compound metabolized | Compound metabolized | Compound NOT metabolized | Compound NOT metabolized | Compound metabolized
5 | CC(C)(C)NC[C@H](O)COc1ccccc1C1CCCC1.CC(C)(C)NC[C@H](O)COc1ccccc1C1CCCC1.O=S(=O)(O)O [PENBUTOLOL SULFATE] | Compound metabolized | Compound metabolized | Compound metabolized | Compound metabolized | Compound metabolized | Compound metabolized | Compound metabolized | Compound metabolized | Compound metabolized | Compound metabolized | Compound metabolized | Compound metabolized | Compound metabolized | Compound NOT metabolized | Compound NOT metabolized | Compound metabolized | Compound metabolized | Compound metabolized | Compound metabolized | Compound metabolized

Second part, the molecule after the results:

Row | Bacterial Biotransformation [1] | Bacterial Biotransformation [2] | Bacterial Biotransformation [3] | Bacterial Biotransformation [4] | Bacterial Biotransformation [5] | Bacterial Biotransformation [6] | Bacterial Biotransformation [7] | Bacterial Biotransformation [8] | Bacterial Biotransformation [9] | Bacterial Biotransformation [10] | Bacterial Biotransformation [11] | Bacterial Biotransformation [12] | Bacterial Biotransformation [13] | Bacterial Biotransformation [14] | Bacterial Biotransformation [15] | Bacterial Biotransformation [16] | Bacterial Biotransformation [17] | Bacterial Biotransformation [18] | Bacterial Biotransformation [19] | Bacterial Biotransformation [20] | SMILES
6 | Compound metabolized | Compound metabolized | Compound metabolized | Compound metabolized | Compound metabolized | Compound NOT metabolized | Compound metabolized | Compound metabolized | Compound metabolized | Compound metabolized | Compound metabolized | Compound metabolized | Compound metabolized | Compound NOT metabolized | Compound NOT metabolized | Compound metabolized | Compound metabolized | Compound metabolized | Compound metabolized | Compound metabolized | CCCCC1=NC2(CCCC2)C(=O)N1Cc1ccc(-c2ccccc2-c2nnn[nH]2)cc1 [IRBESARTAN]
7 | Compound metabolized | Compound metabolized | Compound metabolized | Compound NOT metabolized | Compound metabolized | Compound metabolized | Compound NOT metabolized | Compound metabolized | Compound NOT metabolized | Compound metabolized | Compound metabolized | Compound metabolized | Compound NOT metabolized | Compound NOT metabolized | Compound metabolized | Compound metabolized | Compound metabolized | Compound metabolized | Compound metabolized | Compound metabolized | O=C(O)CCc1nc(-c2ccccc2)c(-c2ccccc2)o1 [OXAPROZIN]
8 | Compound NOT metabolized | Compound NOT metabolized | Compound NOT metabolized | Compound NOT metabolized | Compound NOT metabolized | Compound NOT metabolized | Compound NOT metabolized | Compound NOT metabolized | Compound NOT metabolized | Compound NOT metabolized | Compound NOT metabolized | Compound NOT metabolized | Compound NOT metabolized | Compound NOT metabolized | Compound NOT metabolized | Compound NOT metabolized | Compound NOT metabolized | Compound NOT metabolized | Compound NOT metabolized | Compound NOT metabolized | CCOc1ccc(NC(C)=O)cc1 [PHENACETIN]
